Test results published in PubChem BioAssay AID1259408 (Genetic Toxicology Data Bank (GENE-TOX), 2018).
Active and inactive are the calls of the source. How the calls were made is not given here.

Test system: GENE-TOX genotoxicity assays, various organisms and cells
Test: GENE-TOX mutagenicity studies
Conditions: for call: Assay Type: In vivo carcinogenicity studies
[1] = Species/Cell Type: Human lymphocytes, Assay Type: Sister-chromatid exchange (SCE) in vitro, Assay Code: SCL+D, Dose Response: With dose response, Evaluation Type: Evaluation B (Post-1980)
[2] = Species/Cell Type: Human, Assay Type: Sister-chromatid exchange (SCE) in vitro, Assay Code: SC1+D, Dose Response: With dose response, Evaluation Type: Evaluation B (Post-1980)
[3] = Species/Cell Type: Drosophila melanogaster, Assay Type: Sex-linked recessive lethal gene mutation, Assay Code: SRL+, Evaluation Type: Evaluation A (Pre-1980)
[4] = Species/Cell Type: Nonhuman, Assay Code: CCG+, Evaluation Type: Evaluation A (Pre-1980)
[5] = Species/Cell Type: Salmonella typhimurium (one or more of the five standard strains: TA98, TA100, TA1535, TA1537, and TA1538), Assay Type: Histidine reverse gene mutation, Ames assay, Assay Code: SAL-, Evaluation Type: Evaluation A (Pre-1980)
[6] = Species/Cell Type: Escherichia coli polA (W3119 vs P3478), Assay Type: Rec-assay, DNA effects (bacterial DNA repair), Assay Code: RE1T, Evaluation Type: Evaluation A (Pre-1980)
[7] = Species/Cell Type: Salmonella typhimurium (one or more of the five standard strains: TA98, TA100, TA1535, TA1537, and TA1538), Assay Type: Histidine reverse gene mutation, Ames assay, Assay Code: SALT, Evaluation Type: Evaluation A (Pre-1980)

For Cn1ccc(CO)c1, the mutagenic call [1] was “active; positive” and the mutagenic call [2] was “active; positive”.
In the case of Nc1ccc2nc3ccccn3c2n1, the mutagenic call [1] is reported as “active; positive” and the mutagenic call [2] is reported as “active; positive”.
O=NN1CCN(N=O)CC1 was tested, and the mutagenic call [3] was “active; positive”, the mutagenic call (Species/Cell Type: Drosophila melanogaster, Sex: Male, Assay Type: Heritable translocation test, chromosome aberrations, Assay Code: DHTT, Evaluation Type: Evaluation A (Pre-1980)) was “no conclusion” and the mutagenic call (Species/Cell Type: Glycine max (soybean), Assay Type: Gene mutation, Assay Code: GLM-, Evaluation Type: Evaluation A (Pre-1980)) was “inactive; negative”. The mutagenic call (Species/Cell Type: Mouse embryo (AKR/ME) cells, Assay Type: Cell transformation, Assay Code: CTK+, Evaluation Type: Evaluation A (Pre-1980)) was “active; positive”, the call [4] was “active; positive” and the mutagenic call (Species/Cell Type: Salmonella typhimurium (one or more of the five standard strains: TA98, TA100, TA1535, TA1537, and TA1538), Assay Type: Histidine reverse gene mutation, Ames assay, Assay Code: SAL+*, Activation: With metabolic activation, Evaluation Type: Evaluation A (Pre-1980)) was “active; positive”. For the same molecule, the mutagenic call (Species/Cell Type: Salmonella typhimurium, Assay Type: Forward and reverse gene mutation, host-mediated assay, Assay Code: HMA+, Evaluation Type: Evaluation A (Pre-1980)) was “active; positive”.
For O=C1OC(=O)c2c(Br)c(Br)c(Br)c(Br)c21, the mutagenic call [5] was “inactive; negative”.
For CCc1ccccc1, the mutagenic call (Species/Cell Type: Human lymphocytes, Assay Type: Sister-chromatid exchange (SCE) in vitro, Assay Code: SCL+, Evaluation Type: Evaluation B (Post-1980)) was “active; positive”, the mutagenic call (Species/Cell Type: Human, Assay Type: Sister-chromatid exchange (SCE) in vitro, Assay Code: SC1+, Evaluation Type: Evaluation B (Post-1980)) was “active; positive” and the mutagenic call (Species/Cell Type: Syrian hamster embryo (SA7/SHE) cells, Assay Type: Cell transformation, viral enhanced, Assay Code: CT7-, Evaluation Type: Evaluation A (Pre-1980)) was “inactive; negative”.
For COc1ccc(C(c2ccc(OC)cc2)C(Cl)(Cl)Cl)cc1, the mutagenic call (Species/Cell Type: Bacillus subtilis (H17 vs M45), Assay Type: Rec-assay, spot test, DNA effects (bacterial DNA repair), Assay Code: REWT, Evaluation Type: Evaluation A (Pre-1980)) was “no conclusion”, the mutagenic call (Species/Cell Type: Drosophila melanogaster, Assay Type: Sex-linked recessive lethal gene mutation, Assay Code: SRL-, Evaluation Type: Evaluation A (Pre-1980)) was “inactive; negative” and the mutagenic call (Species/Cell Type: Escherichia coli WP2 UVRA, Assay Type: Tryptophan reverse gene mutation, Assay Code: WPU-*, Activation: With metabolic activation, Evaluation Type: Evaluation A (Pre-1980)) was “inactive; negative”. The mutagenic call [6] was “no conclusion”, the mutagenic call (Species/Cell Type: Fischer rat embryo (RLV/1706) cells, Assay Type: Cell transformation, viral enhanced, Assay Code: CTR-, Evaluation Type: Evaluation A (Pre-1980)) was “inactive; negative” and the mutagenic call (Species/Cell Type: Human diploid fibroblasts, Assay Type: Unscheduled DNA synthesis (UDS) in vitro, DNA effects, Assay Code: UDH-, Evaluation Type: Evaluation A (Pre-1980)) was “inactive; negative”. The mutagenic call (Species/Cell Type: Mouse (BALB/c-3T3) cells, Assay Type: Cell transformation, Assay Code: CTB+D, Dose Response: With dose response, Evaluation Type: Evaluation A (Pre-1980)) was “active; positive”, the call (Species/Cell Type: Nonhuman, Assay Code: CCG-, Evaluation Type: Evaluation A (Pre-1980)) was “inactive; negative” and the mutagenic call (Species/Cell Type: Saccharomyces cerevisiae, Assay Type: Mitotic recombination or gene conversion, Assay Code: YEH-, Evaluation Type: Evaluation A (Pre-1980)) was “inactive; negative”. The mutagenic call [5] was “inactive; negative” and the mutagenic call (Species/Cell Type: Syrian hamster embryo (SHE) cells, Assay Type: Cell transformation, clonal assay, Assay Code: CTC-, Evaluation Type: Evaluation A (Pre-1980)) was “inactive; negative”.
For COc1ccc2c(c1)c(CC(=O)O)c(C)n2C(=O)c1ccc(Cl)cc1, the mutagenic call (Species/Cell Type: Human lymphocytes, Assay Type: Sister-chromatid exchange (SCE) in vivo, Assay Code: SCY+, Evaluation Type: Evaluation B (Post-1980)) was “active; positive”, the mutagenic call (Species/Cell Type: Human, Assay Type: Sister-chromatid exchange (SCE) in vitro, Assay Code: SC1T, Evaluation Type: Evaluation B (Post-1980)) was “no conclusion” and the mutagenic call (Species/Cell Type: Mammalian polychromatic erythrocytes, Assay Type: Micronucleus test, chromosome aberrations, Assay Code: MNT+, Evaluation Type: Evaluation B (Post-1980)) was “active; positive”. The mutagenic call (Species/Cell Type: Nonhuman, Assay Type: Sister-chromatid exchange (SCE) in vitro, Assay Code: SC2T, Evaluation Type: Evaluation B (Post-1980)) was “no conclusion”.
CCNP(=S)(OC)O/C(C)=C/C(=O)OC(C)C (configuration not stated) (tested in a mixture with another compound) was tested, and the mutagenic call (Species/Cell Type: Mammalian polychromatic erythrocytes, Assay Type: Micronucleus test, chromosome aberrations, Assay Code: MNTT, Evaluation Type: Evaluation B (Post-1980)) was “no conclusion”.
In the case of COP(=O)(OC)OC, the mutagenic call [3] is reported as “active; positive”, the mutagenic call [6] is reported as “no conclusion” and the mutagenic call (Species/Cell Type: Human lymphocytes or leukocytes, Assay Type: Chromosome aberrations in vitro, Assay Code: CY7+D, Dose Response: With dose response, Evaluation Type: Evaluation A (Pre-1980)) is reported as “active; positive”. The mutagenic call (Species/Cell Type: Mammalian polychromatic erythrocytes, Assay Type: Micronucleus test, chromosome aberrations, Assay Code: MNT+, Evaluation Type: Evaluation A (Pre-1980)) was “active; positive”, the mutagenic call (Species/Cell Type: Mouse, Sex: Male, Assay Type: Sperm morphology, Assay Code: SPI+, Evaluation Type: Evaluation A (Pre-1980)) was “active; positive” and the call [4] was “active; positive”. For the same molecule, the mutagenic call (Species/Cell Type: Rodents, Sex: Male, Assay Type: Dominant lethal test, Assay Code: DLT+D, Dose Response: With dose response, Evaluation Type: Evaluation A (Pre-1980)) was “active; positive” and the mutagenic call (Species/Cell Type: Tradescantia species, Assay Type: Gene mutation, Assay Code: TRM+D, Dose Response: With dose response, Evaluation Type: Evaluation A (Pre-1980)) was “active; positive”.
CN(N=O)C(=O)Nc1ccc(Cl)cc1 was tested, and the mutagenic call (Species/Cell Type: Nonhuman, Assay Type: Sister-chromatid exchange (SCE) in vitro, Assay Code: SC2+D, Dose Response: With dose response, Evaluation Type: Evaluation B (Post-1980)) was “active; positive”.
In the case of Cc1ccc(OC(=O)N(C)N=O)cc1C, the mutagenic call (Species/Cell Type: Bacillus subtilis (H17 vs M45T), Assay Type: Rec-assay, spot test, DNA effects (bacterial DNA repair), Assay Code: REX+, Evaluation Type: Evaluation A (Pre-1980)) is reported as “active; positive” and the mutagenic call (Species/Cell Type: Escherichia coli WP2, Assay Type: Tryptophan reverse gene mutation, Assay Code: WP2+, Evaluation Type: Evaluation A (Pre-1980)) is reported as “active; positive”.
With O=CNc1nc(-c2cc([N+](=O)[O-])cs2)cs1 the mutagenic call (Species/Cell Type: Salmonella typhimurium (one or more of the five standard strains: TA98, TA100, TA1535, TA1537, and TA1538), Assay Type: Histidine reverse gene mutation, Ames assay, Assay Code: SAL+, Evaluation Type: Evaluation A (Pre-1980)) was “active; positive”.
With c1cc2ccc3ccc4c5c(c6c(c1CCC6)c2c35)CCC4 the mutagenic call [7] was “no conclusion”.
For Cc1c(F)c2ccccc2c2ccc3ccccc3c12, the mutagenic call [7] was “no conclusion”.
With S=C=S the mutagenic call (Species/Cell Type: Human, Sex: Male, Assay Type: Sperm morphology, Assay Code: SPH+, Evaluation Type: Evaluation A (Pre-1980)) was “active; positive”.
In the case of CCCCCCCC(=O)OCC(COC(=O)CCCCCCC)OC(=O)CCCCCCC, the mutagenic call (Species/Cell Type: Mouse, Sex: Female, Assay Type: Spot test, gene mutation, Assay Code: MSTT, Evaluation Type: Evaluation A (Pre-1980)) is reported as “no conclusion”.
